In PMC4183655, “Discovery and Optimization of Small-Molecule Ligands for the CBP/p300 Bromodomains” (Journal of the American Chemical Society, 2014):
Like-named read-outs stand apart in the source and are kept apart here. One block for each compound: values may come before it.

Legend:
[1] = biological target: T1, CBP (Homo sapiens, UniProt Q92793); assay: DSF (ΔTm) thermal stability assay; type: binding; conditions: compound concentration 10 μM; mean ± SEM (number of measurements)
[2] = biological target: T1, CBP; assay: Peptide displacement AlphaScreen; type: binding
[3] = test system: CBP; conditions: cited from earlier work
[4] = test system: BRD4(1); conditions: cited from earlier work
[5] = biological target: T2, BRD4(1) (Homo sapiens, UniProt O60885); assay: Isothermal titration calorimetry (ITC); conditions: for ITC 9T∆S, BRD4(1): At T = 298.15 K; for Selectivity for CBP over BRD4(1): from ITC Kd values
[6] = biological target: T1, CBP; assay: Isothermal titration calorimetry (ITC); conditions: for ITC 9T∆S, CBP: At T = 298.15 K
[7] = biological target: T2, BRD4(1); assay: DSF (ΔTm) thermal stability assay; type: binding; conditions: compound concentration 10 μM; mean ± SEM (number of measurements)
[8] = biological target: T2, BRD4(1); assay: Peptide displacement AlphaScreen; type: binding
[9] = test system: GFP-tagged 3 × CBP BRD construct; assay: Fluorescence recovery after photo-bleaching (FRAP) assay; conditions: HeLa cells, SAHA-treated, compound 0.1 μM
[10] = mean ± SEM (number of measurements), read-out: CBP AlphaScreen pIC50 (converted)

T1 sequence (Q92793 1085-1192 limits assumed): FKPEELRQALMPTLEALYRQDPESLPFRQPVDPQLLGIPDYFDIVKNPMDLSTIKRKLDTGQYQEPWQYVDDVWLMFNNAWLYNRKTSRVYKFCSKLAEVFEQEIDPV

ΔTm at 10 µM [1]: 9.6 °C
Kd ([5]; ITC Kd BRD4(1), 15 °C): 440 ± 25 nM
Selectivity for CBP over BRD4(1) [5]: 20-fold
Structure (SMILES): COc1ccc(CCc2nc3cc(-c4c(C)noc4C)ccc3n2CCN2CCOCC2)cc1F [Compound 33]

ΔTm at 10 µM [1]: ~10 °C
Kd ([5]; ITC Kd BRD4(1), 15 °C): 610 ± 54 nM
Selectivity for CBP over BRD4(1) [5]: 16-fold
IC50 [2, 10]: < 100 nM
Kd ([6]; ITC Kd CBP, 15 °C): 39 ± 2.9 nM
Structure (SMILES): COc1ccc(CCc2nc3cc(-c4c(C)noc4C)ccc3n2C[C@H](C)N2CCOCC2)cc1F [Compound 63]

ITC N (molar binding ratio of the ligand-protein interaction), BRD4(1) [5]: 1.04 ± 0.0101
ITC ∆G, BRD4(1) [5]: -7.78 kcal/mol
ITC ∆H, BRD4(1) [5]: -8.50 ± 0.108 kcal/mol
ITC 9T∆S, BRD4(1) [5]: 0.725 kcal/mol
Kd ([5]; ITC Ka, BRD4(1)): 1210 nM
ITC N (molar binding ratio of the ligand-protein interaction), CBP [6]: 0.983 ± 0.00535
ITC ∆G, CBP [6]: -8.50 kcal/mol
ITC ∆H, CBP [6]: -14.0 ± 0.0994 kcal/mol
ITC 9T∆S, CBP [6]: 5.72 kcal/mol
Kd ([6]; ITC Ka, CBP): 368 nM
Structure (SMILES): Cc1noc(C)c1-c1ccc(NC[C@H](C)N2CCOCC2)c([N+](=O)[O-])c1 [Compound 57]

ITC N (molar binding ratio of the ligand-protein interaction), BRD4(1) [5]: 0.859 ± 0.00961
ITC ∆G, BRD4(1) [5]: -8.17 kcal/mol
ITC ∆H, BRD4(1) [5]: -9.15 ± 0.128 kcal/mol
ITC 9T∆S, BRD4(1) [5]: 0.978 kcal/mol
Kd ([5]; ITC Ka, BRD4(1)): 606 nM
ITC N (molar binding ratio of the ligand-protein interaction), CBP [6]: 1.08 ± 0.0029
ITC ∆G, CBP [6]: -9.71 kcal/mol
ITC ∆H, CBP [6]: -11.1 ± 0.0496 kcal/mol
ITC 9T∆S, CBP [6]: 1.37 kcal/mol
Kd ([6]; ITC Ka, CBP): 39.4 nM
Structure (SMILES): COc1ccc(CCc2nc3cc(-c4c(C)noc4C)ccc3n2C[C@@H](C)N2CCOCC2)cc1F [Compound 62]

ΔTm at 10 µM [1]: 8.9 °C
Kd ([5]; ITC Kd BRD4(1), 15 °C): 660 ± 55 nM
Selectivity for CBP over BRD4(1) [5]: 22-fold
Kd ([6]; ITC Kd CBP, 15 °C): 30 ± 2.1 nM
Structure (SMILES): Cc1noc(C)c1-c1ccc2c(c1)nc(CCn1ccc3ccccc31)n2CCN1CCOCC1 [Compound 36]

The remaining lines, values behind:

Structure (SMILES): COC(Cn1c(CCc2ccccc2)nc2cc(-c3c(C)noc3C)ccc21)OC [Compound 13]
ΔTm at 10 µM [1]: 0.27 °C
IC50 ([2]; read-out: AlphaScreen IC50 CBP): 460000 nM

Structure (SMILES): Cc1noc(C)c1-c1ccc2nc[nH]c2c1 [Compound 5]
CBP pIC50 [3]: 5.4
BRD4(1) pIC50 [4]: 5.2

Structure (SMILES): COc1ccc(CCc2nc3cc(-c4c(C)noc4C)ccc3n2CCN2CCOCC2)cc1Cl [Compound 32]
ΔTm at 10 µM [1]: 9 °C
ITC Ka, BRD4(1) [5]: 2.26 ± 0.121 106 M91
ITC N (molar binding ratio of the ligand-protein interaction), BRD4(1) [5]: 0.604 ± 0.00325
ITC ∆G, BRD4(1) [5]: -8.32 kcal/mol
ITC ∆H, BRD4(1) [5]: -9.99 ± 0.0746 kcal/mol
ITC 9T∆S, BRD4(1) [5]: 1.670 kcal/mol
Selectivity for CBP over BRD4(1) [5]: 17-fold
ITC N (molar binding ratio of the ligand-protein interaction), CBP [6]: 1.18 ± 0.00143
ITC ∆G, CBP [6]: -10.1 kcal/mol
ITC ∆H, CBP [6]: -10.8 ± 0.0290 kcal/mol
ITC 9T∆S, CBP [6]: 0.760 kcal/mol
Kd ([6]; ITC Ka, CBP): 22.3 nM

Structure (SMILES): Cc1noc(C)c1-c1ccc2c(c1)nc(CC(C)(C)C)n2CCN(C)C [Compound 8]
ΔTm at 10 µM [7]: 3.2 °C
ΔTm at 10 µM [1]: 4.5 °C
IC50 [2, 10]: 501 nM

Structure (SMILES): Cc1noc(C)c1-c1ccc2c(c1)nc(CCc1ccccc1)n2CCN1CCC1 [Compound 14]
ΔTm at 10 µM [7]: 2.6 °C
IC50 [8]: 22000 nM
ΔTm at 10 µM [1]: 4.4 °C
IC50 ([2]; read-out: AlphaScreen IC50 CBP): 570 nM

Structure (SMILES): Cc1noc(C)c1-c1ccc2ncn(Cc3ccc(C#N)cc3)c2c1 [Compound 6]
CBP pIC50 [3]: < 4.0
BRD4(1) pIC50 [4]: 6.7
FRAP half-time of fluorescence recovery (t1/2), GFP-tagged 3× CBP BRD [9]: 0.74 s

Structure (SMILES): Cc1noc(C)c1-c1ccc2c(c1)nc(CCc1ccccc1)n2CCN(C)C [Compound 12]
ΔTm at 10 µM [7]: 2.9 °C
ΔTm at 10 µM [1]: 6.3 °C
IC50 [2, 10]: 501 nM

Structure (SMILES): COc1ccc(CCc2nc3cc(-c4c(C)noc4C)ccc3n2CCN2CCOCC2)cc1 [Compound 26]
ΔTm at 10 µM [1]: 8.1 °C

Structure (SMILES): Cc1noc(C)c1-c1ccc2c(c1)ncn2Cc1ccc(Cl)cc1 [Compound 7]
CBP pIC50 [3]: 5.7
